Test results reported in ChEMBL document CHEMBL5291721, “A preclinical secondary pharmacology resource illuminates target-adverse drug reaction associations of marketed drugs” (Nat Commun, 2023).

Key:
Adenosine receptor A3 = biological target: T1, Adenosine receptor A3 (Homo sapiens, UniProt P0DMS8)
T1 sequence (P0DMS8 whole entry): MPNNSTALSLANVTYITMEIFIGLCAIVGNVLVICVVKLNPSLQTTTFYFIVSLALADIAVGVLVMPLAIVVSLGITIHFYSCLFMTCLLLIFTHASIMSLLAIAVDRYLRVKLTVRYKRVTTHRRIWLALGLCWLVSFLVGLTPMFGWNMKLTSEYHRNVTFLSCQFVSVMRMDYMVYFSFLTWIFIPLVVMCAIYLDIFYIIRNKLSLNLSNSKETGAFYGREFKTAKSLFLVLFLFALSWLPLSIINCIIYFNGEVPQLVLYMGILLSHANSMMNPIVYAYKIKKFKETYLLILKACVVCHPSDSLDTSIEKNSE

[1] = biological target: Beta-1 adrenergic receptor (Homo sapiens, UniProt P08588); type: functional
B2 bradykinin receptor = biological target: T2, B2 bradykinin receptor (Homo sapiens, UniProt P30411)
T2 sequence (P30411 whole entry): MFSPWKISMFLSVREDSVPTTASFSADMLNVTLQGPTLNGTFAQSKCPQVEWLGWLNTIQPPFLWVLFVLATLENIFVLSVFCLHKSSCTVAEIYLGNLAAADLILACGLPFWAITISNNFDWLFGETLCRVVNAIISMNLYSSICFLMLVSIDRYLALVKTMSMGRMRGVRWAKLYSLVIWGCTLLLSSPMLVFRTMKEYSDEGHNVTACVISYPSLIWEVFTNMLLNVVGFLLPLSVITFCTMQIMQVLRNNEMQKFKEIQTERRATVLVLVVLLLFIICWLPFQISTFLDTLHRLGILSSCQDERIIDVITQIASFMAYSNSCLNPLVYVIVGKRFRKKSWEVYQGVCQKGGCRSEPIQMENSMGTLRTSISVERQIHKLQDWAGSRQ

Cannabinoid receptor 1 = Cannabinoid receptor 1 (Homo sapiens, UniProt P21554); type: functional, cell-based
[2] = biological target: Glutamate receptor ionotropic, NMDA 1 (Rattus norvegicus, UniProt P35439)
[3] = biological target: T3, 5-hydroxytryptamine receptor 3A (Homo sapiens, UniProt P46098); type: functional
T3 sequence (P46098 whole entry): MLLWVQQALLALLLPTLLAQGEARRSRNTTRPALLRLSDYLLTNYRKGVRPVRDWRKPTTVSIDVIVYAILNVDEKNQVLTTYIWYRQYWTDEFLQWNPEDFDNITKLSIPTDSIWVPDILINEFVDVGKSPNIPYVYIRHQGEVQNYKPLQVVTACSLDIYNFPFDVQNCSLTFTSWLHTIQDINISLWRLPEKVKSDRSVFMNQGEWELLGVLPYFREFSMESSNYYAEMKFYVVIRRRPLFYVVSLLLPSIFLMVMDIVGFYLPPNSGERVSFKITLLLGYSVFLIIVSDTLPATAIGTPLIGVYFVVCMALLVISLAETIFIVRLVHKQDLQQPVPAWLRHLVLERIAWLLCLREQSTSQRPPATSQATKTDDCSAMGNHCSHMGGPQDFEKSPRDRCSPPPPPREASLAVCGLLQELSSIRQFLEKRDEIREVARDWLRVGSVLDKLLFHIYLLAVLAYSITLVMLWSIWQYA

Melanocortin receptor 3 = Melanocortin receptor 3 (Homo sapiens, UniProt P41968)
Motilin receptor = Motilin receptor (Homo sapiens, UniProt O43193)
[4] = biological target: T4, Neuropeptide Y receptor type 1 (Homo sapiens, UniProt P25929)
T4 sequence (P25929 whole entry): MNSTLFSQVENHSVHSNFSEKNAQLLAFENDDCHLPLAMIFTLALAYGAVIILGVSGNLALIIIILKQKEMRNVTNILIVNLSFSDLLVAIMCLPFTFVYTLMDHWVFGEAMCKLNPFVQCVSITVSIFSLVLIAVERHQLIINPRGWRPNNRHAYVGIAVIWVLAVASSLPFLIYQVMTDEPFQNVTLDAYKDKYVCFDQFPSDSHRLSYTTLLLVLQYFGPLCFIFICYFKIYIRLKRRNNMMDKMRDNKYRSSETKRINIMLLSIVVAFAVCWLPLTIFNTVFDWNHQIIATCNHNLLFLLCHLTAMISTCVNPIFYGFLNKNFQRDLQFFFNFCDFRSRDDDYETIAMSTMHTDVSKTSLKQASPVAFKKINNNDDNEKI

Progesterone receptor = biological target: T5, Progesterone receptor (Homo sapiens, UniProt P06401); type: functional
T5 sequence (P06401 whole entry): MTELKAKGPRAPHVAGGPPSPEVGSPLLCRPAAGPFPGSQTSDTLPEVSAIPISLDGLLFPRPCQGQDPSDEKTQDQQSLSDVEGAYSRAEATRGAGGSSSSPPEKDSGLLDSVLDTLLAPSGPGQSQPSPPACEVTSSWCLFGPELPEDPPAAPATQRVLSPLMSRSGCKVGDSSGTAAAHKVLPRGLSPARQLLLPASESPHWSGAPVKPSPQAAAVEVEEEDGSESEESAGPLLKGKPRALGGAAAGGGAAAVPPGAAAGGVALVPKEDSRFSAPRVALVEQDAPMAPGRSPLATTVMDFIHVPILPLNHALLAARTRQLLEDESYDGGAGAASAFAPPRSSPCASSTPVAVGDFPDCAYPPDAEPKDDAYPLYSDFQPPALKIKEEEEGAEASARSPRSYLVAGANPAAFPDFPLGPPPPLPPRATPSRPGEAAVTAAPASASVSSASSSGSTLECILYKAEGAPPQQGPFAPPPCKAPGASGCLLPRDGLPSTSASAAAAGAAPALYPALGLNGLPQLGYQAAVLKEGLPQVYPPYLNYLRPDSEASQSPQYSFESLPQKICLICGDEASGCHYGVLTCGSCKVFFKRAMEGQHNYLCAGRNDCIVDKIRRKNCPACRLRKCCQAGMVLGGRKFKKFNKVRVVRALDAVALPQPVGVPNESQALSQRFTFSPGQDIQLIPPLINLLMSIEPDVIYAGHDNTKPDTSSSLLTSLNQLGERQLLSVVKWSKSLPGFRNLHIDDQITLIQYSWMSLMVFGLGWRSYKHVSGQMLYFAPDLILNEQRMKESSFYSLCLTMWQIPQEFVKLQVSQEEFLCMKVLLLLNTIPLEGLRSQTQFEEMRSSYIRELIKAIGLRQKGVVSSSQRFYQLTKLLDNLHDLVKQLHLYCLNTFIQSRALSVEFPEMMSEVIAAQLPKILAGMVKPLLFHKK

Mu-type opioid receptor = Mu-type opioid receptor (Homo sapiens, UniProt P35372)

Measured: AC50
Further: assay procedure not described here.

Sequence of Motilin receptor (O43193 whole entry): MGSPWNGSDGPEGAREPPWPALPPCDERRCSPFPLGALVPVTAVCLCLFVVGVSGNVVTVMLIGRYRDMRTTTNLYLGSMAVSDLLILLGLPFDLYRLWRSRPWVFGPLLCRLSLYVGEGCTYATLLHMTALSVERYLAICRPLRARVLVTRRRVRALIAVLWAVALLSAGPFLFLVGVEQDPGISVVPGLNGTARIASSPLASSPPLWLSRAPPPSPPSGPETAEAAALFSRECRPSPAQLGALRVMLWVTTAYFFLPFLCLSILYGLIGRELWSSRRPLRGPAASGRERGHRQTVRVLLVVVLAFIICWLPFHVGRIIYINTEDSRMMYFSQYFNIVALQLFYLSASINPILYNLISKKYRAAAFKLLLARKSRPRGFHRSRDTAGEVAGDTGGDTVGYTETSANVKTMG
Sequence of Beta-1 adrenergic receptor (P08588 whole entry): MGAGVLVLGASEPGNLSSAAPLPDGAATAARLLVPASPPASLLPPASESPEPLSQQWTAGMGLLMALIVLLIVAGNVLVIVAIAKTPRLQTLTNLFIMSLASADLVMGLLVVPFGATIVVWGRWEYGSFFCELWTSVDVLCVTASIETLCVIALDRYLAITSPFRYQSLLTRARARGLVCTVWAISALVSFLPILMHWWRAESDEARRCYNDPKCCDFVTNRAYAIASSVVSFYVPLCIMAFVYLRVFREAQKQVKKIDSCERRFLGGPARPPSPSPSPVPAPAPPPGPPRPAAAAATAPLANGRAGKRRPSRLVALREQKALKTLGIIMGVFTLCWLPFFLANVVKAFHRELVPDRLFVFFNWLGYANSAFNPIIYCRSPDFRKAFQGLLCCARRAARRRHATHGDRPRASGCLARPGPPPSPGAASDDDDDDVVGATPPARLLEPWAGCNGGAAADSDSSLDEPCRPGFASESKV
Sequence of Melanocortin receptor 3 (P41968 whole entry): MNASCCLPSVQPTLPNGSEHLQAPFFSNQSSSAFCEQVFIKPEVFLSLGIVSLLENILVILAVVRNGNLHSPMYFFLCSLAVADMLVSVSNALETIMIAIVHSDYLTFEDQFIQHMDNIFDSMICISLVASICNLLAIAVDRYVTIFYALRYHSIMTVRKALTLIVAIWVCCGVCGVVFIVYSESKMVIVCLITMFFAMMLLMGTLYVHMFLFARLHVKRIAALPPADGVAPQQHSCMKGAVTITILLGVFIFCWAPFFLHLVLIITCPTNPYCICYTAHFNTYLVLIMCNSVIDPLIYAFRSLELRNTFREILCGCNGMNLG
Sequence of Mu-type opioid receptor (P35372 whole entry): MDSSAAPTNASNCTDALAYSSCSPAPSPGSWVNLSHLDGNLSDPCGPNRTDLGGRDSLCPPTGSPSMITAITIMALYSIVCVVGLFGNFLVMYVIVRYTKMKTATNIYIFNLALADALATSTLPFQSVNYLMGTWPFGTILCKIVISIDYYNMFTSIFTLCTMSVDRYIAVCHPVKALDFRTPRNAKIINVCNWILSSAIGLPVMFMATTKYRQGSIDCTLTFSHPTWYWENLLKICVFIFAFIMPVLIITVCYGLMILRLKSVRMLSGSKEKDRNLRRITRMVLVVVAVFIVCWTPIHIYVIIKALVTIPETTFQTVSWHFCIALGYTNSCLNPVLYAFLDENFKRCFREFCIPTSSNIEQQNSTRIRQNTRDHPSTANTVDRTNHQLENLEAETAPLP
Sequence of Cannabinoid receptor 1 (P21554 whole entry): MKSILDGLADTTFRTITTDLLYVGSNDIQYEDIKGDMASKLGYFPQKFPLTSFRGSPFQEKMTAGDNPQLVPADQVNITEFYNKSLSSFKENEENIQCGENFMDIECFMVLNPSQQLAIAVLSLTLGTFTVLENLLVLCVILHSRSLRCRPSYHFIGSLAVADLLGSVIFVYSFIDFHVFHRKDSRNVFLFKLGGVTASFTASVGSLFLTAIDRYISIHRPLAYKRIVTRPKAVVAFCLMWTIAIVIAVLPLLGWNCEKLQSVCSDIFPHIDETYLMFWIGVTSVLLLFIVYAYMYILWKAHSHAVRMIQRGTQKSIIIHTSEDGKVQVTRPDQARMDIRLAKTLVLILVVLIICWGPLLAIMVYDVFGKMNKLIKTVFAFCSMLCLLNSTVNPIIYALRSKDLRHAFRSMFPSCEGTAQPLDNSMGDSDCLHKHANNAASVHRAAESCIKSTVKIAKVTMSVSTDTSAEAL

CC(=O)Nc1ccc(CC(=O)O)cc1 [ACTARIT]
> 30 µM: Adenosine receptor A3 | [1] | B2 bradykinin receptor | Cannabinoid receptor 1 | [2] | [3] | Melanocortin receptor 3 | Motilin receptor | [4] | Progesterone receptor

CC(C(=O)O)c1ccc2oc(-c3ccc(Cl)cc3)nc2c1 (configuration not stated) [BENOXAPROFEN]
> 30 µM: Adenosine receptor A3 | [1] | B2 bradykinin receptor | Cannabinoid receptor 1 | [2] | [3] | Melanocortin receptor 3 | Motilin receptor | [4] | Progesterone receptor

CC1(C)S[C@@H]2[C@H](NC(=O)C(C(=O)O)c3ccccc3)C(=O)N2[C@H]1C(=O)O (some centres not stated) [CARBENICILLIN]
> 30 µM: Adenosine receptor A3 | [1] | B2 bradykinin receptor | Cannabinoid receptor 1 | [2] | [3] | Melanocortin receptor 3 | Motilin receptor | [4] | Progesterone receptor

CC=CC1=C(C(=O)O)N2C(=O)[C@@H](NC(=O)[C@H](N)c3ccc(O)cc3)[C@H]2SC1 [CEFPROZIL]
> 30 µM: Adenosine receptor A3 | [1] | B2 bradykinin receptor | [2] | [3] | Melanocortin receptor 3 | Motilin receptor | [4] | Progesterone receptor

CC(C)(O/N=C(\C(=O)N[C@@H]1C(=O)N2C(C(=O)[O-])=C(C[n+]3ccccc3)CS[C@H]12)c1csc(N)n1)C(=O)O [CEFTAZIDIME]
> 30 µM: B2 bradykinin receptor | [2] | [4]
> 300 µM: Adenosine receptor A3 | [1] | Cannabinoid receptor 1 | [3] | Melanocortin receptor 3 | Motilin receptor | Mu-type opioid receptor

CC(C)NC(=N)NC(=N)Nc1ccc(Cl)c(Cl)c1 [CHLORPROGUANIL]
> 30 µM: Cannabinoid receptor 1 | [2] | [3]

CCCNC(=O)NS(=O)(=O)c1ccc(Cl)cc1 [CHLORPROPAMIDE]
> 30 µM: Adenosine receptor A3 | B2 bradykinin receptor | Cannabinoid receptor 1 | [3] | Melanocortin receptor 3 | [4] | Mu-type opioid receptor
> 10 µM: [1] | [2] | Motilin receptor

Cc1cc(C2CCCCC2)n(O)c(=O)c1 [CICLOPIROX]
> 30 µM: Adenosine receptor A3 | [1] | Melanocortin receptor 3 | Progesterone receptor

C[N+](C)(C)CCOP(=O)(O)OP(=O)([O-])OC[C@H]1O[C@@H](n2ccc(N)nc2=O)[C@H](O)[C@@H]1O [CITICOLINE]
> 30 µM: Cannabinoid receptor 1 | [2] | [3]

Clc1ccc(Cn2c(CN3CCCC3)nc3ccccc32)cc1 [CLEMIZOLE]
> 30 µM: Adenosine receptor A3 | [1] | Cannabinoid receptor 1 | [3] | Melanocortin receptor 3 | Motilin receptor | Mu-type opioid receptor

CCC(=O)O[C@]1(C(=O)CCl)[C@@H](C)C[C@H]2[C@@H]3CCC4=CC(=O)C=C[C@]4(C)[C@@]3(F)[C@@H](O)C[C@@]21C [CLOBETASOL PROPIONATE]
> 10 µM: [4]
> 30 µM: Adenosine receptor A3 | [1] | B2 bradykinin receptor | Cannabinoid receptor 1 | [2] | [3] | Melanocortin receptor 3
25 µM: Motilin receptor

CNC[C@H](O)c1ccc(O)c(O)c1 [EPINEPHRINE]
18 µM: Adenosine receptor A3
> 30 µM: Cannabinoid receptor 1 | [3] | Melanocortin receptor 3 | Motilin receptor | Progesterone receptor

COc1ccccc1OC1(C)OC(=O)c2ccccc2O1 (configuration not stated) [GUAIMESAL]
> 30 µM: Adenosine receptor A3 | [1] | B2 bradykinin receptor | Melanocortin receptor 3 | Motilin receptor | [4] | Progesterone receptor

CCCCCCCN(CC)CCCC(O)c1ccc(NS(C)(=O)=O)cc1 (configuration not stated) [IBUTILIDE]
> 30 µM: Adenosine receptor A3 | [1] | B2 bradykinin receptor | [2] | [3] | Melanocortin receptor 3 | Motilin receptor | [4] | Progesterone receptor

CC[C@@H](CO)NC(=O)[C@@H]1C=C2c3cccc4c3c(cn4C)C[C@H]2N(C)C1 [METHYSERGIDE]
> 10 µM: [2] | Motilin receptor
> 30 µM: Adenosine receptor A3 | B2 bradykinin receptor | Cannabinoid receptor 1 | [3] | Melanocortin receptor 3 | [4] | Mu-type opioid receptor

CNC(=C[N+](=O)[O-])NCCSCc1csc(CN(C)C)n1 [NIZATIDINE]
> 10 µM: Adenosine receptor A3 | [1] | B2 bradykinin receptor | [2] | Melanocortin receptor 3 | Motilin receptor | [4] | Progesterone receptor
> 30 µM: [3] | Mu-type opioid receptor

CC(CN1c2ccccc2Sc2ccccc21)N(C)C (configuration not stated) [PROMETHAZINE]
> 30 µM: Adenosine receptor A3 | B2 bradykinin receptor | Cannabinoid receptor 1 | [3] | [4]
> 10 µM: [1] | [2] | Motilin receptor
31.9 µM: Melanocortin receptor 3

CCCc1cc(=O)[nH]c(=S)[nH]1 [PROPYLTHIOURACIL]
> 30 µM: [3] | Mu-type opioid receptor
> 10 µM: Adenosine receptor A3 | [1] | B2 bradykinin receptor | [2] | Melanocortin receptor 3 | Motilin receptor | [4] | Progesterone receptor

Cn1cc(C(=O)[C@@H]2CCc3nc[nH]c3C2)c2ccccc21 [RAMOSETRON]
> 30 µM: Adenosine receptor A3 | [1] | B2 bradykinin receptor | Cannabinoid receptor 1 | [2] | Melanocortin receptor 3 | Motilin receptor | [4] | Progesterone receptor
0.0004 µM: [3]

CC(C)C[C@H](NC(=O)[C@@H](O)[C@H](N)Cc1ccccc1)C(=O)O [UBENIMEX]
> 30 µM: Adenosine receptor A3 | [1] | Cannabinoid receptor 1 | [2] | [3] | Melanocortin receptor 3 | Progesterone receptor
